Data on three compounds can be found in patent US8912227B1, “Bicyclic pyrrole derivatives useful as agonists of GPR120” (Janssen Pharmaceutica NV, priority 2014, dated 2014).

The target in the test is T1, Human GPR120 short form (Homo sapiens, UniProt Q5NUL3).
T1 construct: expressed in transfected cells
T1 sequence (Q5NUL3 1-361): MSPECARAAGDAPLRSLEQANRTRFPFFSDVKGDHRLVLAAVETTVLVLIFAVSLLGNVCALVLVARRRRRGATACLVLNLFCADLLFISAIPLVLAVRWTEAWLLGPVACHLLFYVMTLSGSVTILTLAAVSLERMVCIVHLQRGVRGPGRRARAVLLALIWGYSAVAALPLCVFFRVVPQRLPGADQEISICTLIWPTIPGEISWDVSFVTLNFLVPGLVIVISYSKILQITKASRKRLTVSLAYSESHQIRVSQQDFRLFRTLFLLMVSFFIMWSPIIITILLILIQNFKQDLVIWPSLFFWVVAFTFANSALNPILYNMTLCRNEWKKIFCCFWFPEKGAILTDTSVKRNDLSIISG
Briefly: Human GPR120 calcium flux assay, Procedure Calcium B. The class given is cell-based. The following applies: HEK-293 cells expressing human GPR120 short form, 4200 cells/well, FLIPR. A general note: Calcium flux is commonly read through the fluorescence of an indicator in the cells.

SMILES strings stand for the structures.

As to `CCc1ccc(-n2ccc(C(F)(F)F)c2COc2ccc(CCC(=O)O)c(F)c2F)cc1` [Compound 34, 3-(4-[[1-(4-ethylphenyl)-3-(trifluoromethyl)-1H-pyrrol-2-yl]methoxy]-2,3-difluorophenyl)propanoic acid], the EC50 – broadly, the concentration that produces a half-maximal response – came out at 40 nM. Next, `OCCCc1ccc(OCc2c(C(F)(F)F)ccn2-c2ccc(Cl)cc2)c(F)c1F` [Compound 29, 3-(4-{[1-(4-Chlorophenyl)-3-(trifluoromethyl)-1H-pyrrol-2-yl]methoxy}-2,3-difluorophenyl)propan-1-ol]: 162 nM. Turning to `Cc1ccc(-n2ccc(C(F)(F)F)c2COc2c(F)cc(CCC(=O)O)cc2F)cc1` [Compound 39, 3-(3,5-difluoro-4-[[1-(4-methylphenyl)-3-(trifluoromethyl)-1H-pyrrol-2-yl]methoxy]phenyl)propanoic acid], the EC50 was found to be 50 nM.
